One may read the IC50 as the concentration that gives 50% inhibition. Read a high IC50 as weaker potency.

The target in the experiment is T1, ROMK (Kir1.1) channel (Homo sapiens, UniProt P48048).
T1 sequence (P48048 1-391): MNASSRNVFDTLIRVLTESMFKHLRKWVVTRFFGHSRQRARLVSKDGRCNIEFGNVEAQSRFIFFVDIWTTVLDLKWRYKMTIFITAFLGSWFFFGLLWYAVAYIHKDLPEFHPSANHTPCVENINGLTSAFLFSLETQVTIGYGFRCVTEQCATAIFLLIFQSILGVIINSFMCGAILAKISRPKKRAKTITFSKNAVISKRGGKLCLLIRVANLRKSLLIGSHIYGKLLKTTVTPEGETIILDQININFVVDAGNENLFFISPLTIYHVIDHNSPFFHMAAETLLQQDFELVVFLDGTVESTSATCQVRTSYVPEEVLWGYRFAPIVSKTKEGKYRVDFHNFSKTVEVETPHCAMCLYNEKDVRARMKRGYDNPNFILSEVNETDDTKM
Description: Thallium Flux Assay. The format is cell-based. From the text: The compounds of Formula I according to the invention are inhibitors of ROMK, and therefore could be used as diuretic and/or natriuretic agents. ROMK inhibitors may be used to help to increase urination and increase urine volume and also to prevent or reduce reabsorption of sodium in the kidneys leading to increased excretion of sodium and water. Therefore, the compounds could be used for treatment or prophylaxis or both of disorders that benefit from increased excretion of water and sodium from the body. Accordingly, the compounds of this invention could be used in a method for inhibiting ROMK comprising administering a compound of Formula I in a ROMK-inhibitory effective amount to a patient in need thereof. This also encompasses the use of the compounds for inhibiting ROMK in a patient comprising administering a compound of claim 1 in a therapeutically effective amount to a patient in need of diueresis, natriuresis or both. […] Moreover, this invention also relates to the use of the compounds of Formula I or salts thereof to validate in vitro assays, for example but not limited to the Thallium Flux Assay described herein.
The following Thallium Flux Assay was performed on each of the final product compounds in the Examples.
A Thallium Flux Assay was performed on the compounds of the Examples. This assay has been described previously; see, e.g., PCT Published Application WO 2013/062900.
The compound `CC1=C(N2CCC3(CCN(CC(O)c4ccc(-n5cnnc5)cc4)CC3)C2=O)COC1=O` (racemic) [Example 2, 8-(2-(4-(4H-1,2,4-triazol-4-yl)phenyl)-2-hydroxyethyl)-2-(4-methyl-5-oxo-2,5-dihydrofuran-3-yl)-2,8-diazaspiro[4.5]decan-1-one] yielded an IC50 of 176 nM.

With `CC1=C(N2CCC3(CCN(CC(O)c4ccc(-n5cnnc5)nc4)CC3)C2=O)COC1=O` (racemic) [Example 3, 8-(2-(6-(4H-1,2,4-triazol-4-yl)pyridin-3-yl)-2-hydroxyethyl)-2-(4-methyl-5-oxo-2,5-dihydrofuran-3-yl)-2,8-diazaspiro[4.5]decan-1-one], the IC50 was 248 nM.

With `CC1=C(N2CCC3(CCN(C[C@H](O)c4ccc(-n5ncnn5)cc4)CC3)C2=O)COC1=O` [Example 1, (R)-8-(2-(4-(2H-tetrazol-2-yl)phenyl)-2-hydroxyethyl)-2-(4-methyl-5-oxo-2,5-dihydrofuran-3-yl)-2,8-diazaspiro[4.5]decan-1-one], 7 nM corresponded to half-maximal inhibition (IC50).

For `CC1=C(N2CCC3(CCN(C[C@@H](O)c4ccc(-n5ncnn5)cc4)CC3)C2=O)COC1=O` [Example 4, (S)-8-(2-(4-(2H-tetrazol-2-yl)phenyl)-2-hydroxyethyl)-2-(4-methyl-5-oxo-2,5-dihydrofuran-3-yl)-2,8-diazaspiro[4.5]decan-1-one], it took 7 nM to reach half-maximal inhibition (IC50).

The compound `C[C@H]1CC2(CCN(C[C@@H](O)c3ccc(-n4ncnn4)cc3)CC2)C(=O)N1C1=CC(=O)OC1` [Example 5, (S)-8-((S)-2-(4-(2H-tetrazol-2-yl)phenyl)-2-hydroxyethyl)-3-methyl-2-(5-oxo-2,5-dihydrofuran-3-yl)-2,8-diazaspiro[4.5]decan-1-one] registered an IC50 of 3 nM.

Compound `C[C@H]1CC2(CCN(C[C@H](O)c3ccc(-n4ncnn4)cc3)CC2)C(=O)N1C1=CC(=O)OC1` [Example 6, (S)-8-((R)-2-(4-(2H-tetrazol-2-yl)phenyl)-2-hydroxyethyl)-3-methyl-2-(5-oxo-2,5-dihydrofuran-3-yl)-2,8-diazaspiro[4.5]decan-1-one] displayed an IC50 of 5 nM.

The values above are taken from patent US9926317B2, “Inhibitors of the renal outer medullary potassium channel” (Merck Sharp & Dohme Corp., priority 2014, dated 2018).
